Assay results published in patent US20230265438A1, “NUCLEIC ACIDS FOR INHIBITING EXPRESSION OF CNNM4 IN A CELL” (ASOCIACIÓN CENTRO DE INVESTIGACIÓN COOPERATIVA EN …, priority 2020, published 2023).
{VP} = (E)-vinylphosphonate; m = 2'-O-methyl; f = 2'-fluoro

Columns and labels:
CNNM4 mRNA [1] = assay: CNNM4 mRNA in liver of DIO-NASH mice (Example 24); format: in vivo, mouse; conditions: 1 mg/kg or 5 mg/kg s.c. at 4, 8 and 12 weeks, liver 4 weeks after last treatment, FIG. 30
Experimental: 5-week old C57BL/6 male mice were maintained on a DIO-NASH diet for about 32 weeks and randomized based on pre-liver biopsy fibrosis and steatosis score. Only animals with fibrosis score of ≥ 1 and steatosis score of ≥ 2 were included in the study. Animals were then maintained on DIO-NASH diet for another 16 weeks. At the 4 week, 8 week, and 12 week time points after the pre liver biopsy mice were treated with 1 mg/kg or 5 mg/kg EU422, respectively or with the vehicle PBS by subcutaneous injection. 4 weeks after the last treatment, liver samples were collected from all mice and snap frozen. RNA was extracted from liver samples and CNNM4 and HPRT mRNA levels were determined by Taqman qRT-PCR. Values obtained for CNNM4 mRNA were normalized to values generated for the house keeping gene HPRT and related to mean of untreated sample (ut) set at 1-fold target gene expression. Each bar represents mean value from 15 animals +/-SD.

CNNM4 mRNA [2] = assay: CNNM4 mRNA in liver of wild-type mice after single subcutaneous dose (Examples 12-14); format: in vivo, mouse; conditions: wild-type C57BL/6 mice
Experimental: (§1) Five- to seven-week old male C57BL/6 mice were treated with a single dose of 1 or 5 mg siRNA conjugate per kg body weight by subcutaneous injection. Control groups received a subcutaneous injection with the vehicle PBS. Two weeks after the treatment, liver samples were collected from all mice and snap frozen. RNA was extracted from liver samples and CNNM4 and Actin mRNA levels were determined by Taqman qRT-PCR. Values obtained for CNNM4 mRNA were normalized to values generated for the housekeeping gene Actin and related to mean of untreated sample (ut) set at 1-fold target gene expression. Each bar represents mean value from 6 animals +/-SD.
Five- to seven-week old male C57BL/6 mice were treated with a single dose of 0.3 or 1 mg siRNA conjugate per kg body weight by subcutaneous injection. Control groups received a subcutaneous injection with the vehicle PBS. Two weeks after the treatment, liver samples were collected from all mice and snap frozen. RNA was extracted from liver samples and CNNM4 and Actin mRNA levels were determined by Taqman qRT-PCR. Values obtained for CNNM4 mRNA were normalized to values generated for the housekeeping gene Actin and related to mean of untreated sample (ut) set at 1-fold target gene expression. Each bar represents mean value from 6 animals +/-SD.
as §1, with “1” for “1 or 5”, “Five” for “Two”, “PBS treated cohort (PBS)” for “untreated sample (ut)”

Substance: EU422: CNNM4 siRNA conjugate, duplex EU422A/EU422B; consists of SEQ ID NO: 461 and SEQ ID NO: 462 (chain 1 UGACAAAAGACACAAGAGU; chain 2 ACUCUUGUGUCUUUUGUCA; chain 1: sugars from the 5' end mfmfmfmfmfmfmfmfmfm, 5' {VP}, backbone not given here; chain 2: sugars from the 5' end m6 f3 m10, backbone not given here; undefined (ps2) end linkages, 5' conjugate ST23/ST41 on second strand, further chemistry not fully specified)
- CNNM4 mRNA levels in the liver (CNNM4 mRNA [1]): dose dependent reduction of CNNM4 mRNA levels
- CNNM4 mRNA levels in the liver (CNNM4 mRNA [2]; five weeks after single dose of 1 mg/kg s.c., FIG. 20): reduction of CNNM4 mRNA levels
- CNNM4 mRNA levels in the liver (CNNM4 mRNA [2]; two weeks after single dose of 0.3 or 1 mg/kg s.c., FIG. 19): reduction of CNNM4 mRNA levels
